Test systems include SF-295 CNS; SN12C renal; RPMI-8226 leukemia; UACC-62 melanoma; HCT-116 colon; ACHN renal; M14 melanoma; SK-MEL-2 melanoma; SF-539 CNS; SNB-19 CNS; BT-549 breast.
Holding throughout (test): growth of human tumour cells (NCI), 48 h

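Five compound concentrations were applied to cells in 96-well plates for 48 hours; endpoints were derived by simple linear interpolation of the resulting dose-response curve. TGI denotes the concentration required for complete inhibition of growth.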 Some results are limits rather than exact numbers.

For `CCOC(=O)/C=C(\C(=O)OCC)n1cc(Cl)c(=O)n(CC(=O)OCC)c1=O`, the TGI is more than 61.1 µM with SF-295 CNS; 28.8 µM in the test with SN12C renal; 4.58 µM with RPMI-8226 leukemia; 24.6 µM in the test on UACC-62 melanoma; 4.94 µM in the test on HCT-116 colon; 3.02 µM in the test on ACHN renal. The TGI with M14 melanoma was found to be 10.2 µM; with SK-MEL-2 melanoma, 32 µM; in the test on SF-539 CNS it was 28.5 µM; in the test with SNB-19 CNS, 39 µM; with BT-549 breast, 35.5 µM.
On to `CCC(CC)(CO)CNc1cc(Cl)nc(N)n1`, for which the TGI with SF-295 CNS, with SN12C renal, in the test on RPMI-8226 leukemia, with UACC-62 melanoma, in the test with HCT-116 colon and in the test with ACHN renal was more than 100 µM in each case. Besides, the TGI in the test on SK-MEL-2 melanoma, in the test with SF-539 CNS and in the test with BT-549 breast was more than 100 µM throughout.
`COC(=O)[C@]1(c2cc3ccccc3[nH]2)CC2CN(C(=O)OCc3ccccc3)C1CC2=O` (stereo partly specified): the TGI with SF-295 CNS is more than 100 µM; in the test on SN12C renal it was 80.6 µM; with RPMI-8226 leukemia, 38.9 µM; in the test with UACC-62 melanoma it was 58.7 µM; with HCT-116 colon, more than 100 µM; in the test on ACHN renal, 86 µM. Moreover, the TGI in the test with M14 melanoma is 75.1 µM; in the test on SK-MEL-2 melanoma, 38.2 µM; in the test with SF-539 CNS, more than 100 µM; with SNB-19 CNS, more than 100 µM; in the test on BT-549 breast, 95.5 µM.
For the compound `CN1CCc2c(sc3ncn(Nc4ccc(Cl)cc4)c(=N)c23)C1`, the TGI in the test on SF-295 CNS, in the test with SN12C renal, in the test on RPMI-8226 leukemia, in the test on UACC-62 melanoma, with HCT-116 colon and in the test on ACHN renal was more than 100 µM throughout. Also, the TGI in the test with M14 melanoma, in the test on SK-MEL-2 melanoma, with SF-539 CNS, in the test on SNB-19 CNS and in the test on BT-549 breast was more than 100 µM throughout.
Turning to `O=c1[nH]nc(Cc2ccccc2)n1/N=C/c1cccnc1`, the TGI in the test with SF-295 CNS, in the test with SN12C renal, with RPMI-8226 leukemia, in the test with HCT-116 colon, in the test on ACHN renal and in the test on M14 melanoma was more than 100 µM throughout. Moreover, the TGI in the test on SF-539 CNS, in the test with SNB-19 CNS and with BT-549 breast was more than 100 µM throughout.
For the compound `COc1cc(C2C3=C(CCCC3=O)N(c3ccc(C)cc3)C3=C2C(=O)CCC3)c([N+](=O)[O-])cc1OC`, the TGI in the test on SN12C renal, in the test with RPMI-8226 leukemia, with UACC-62 melanoma, with ACHN renal, in the test on M14 melanoma and with SF-539 CNS was more than 100 µM each time. In addition, the TGI in the test with SNB-19 CNS and in the test on BT-549 breast was more than 100 µM each time.
In the case of `Cc1c(C)c(C)c(-n2c(=O)n(C)c(=O)n2-c2cc(C(C)(C)C)cc(C(C)(C)C)c2O)c(C)c1C`, the TGI was determined as 21.2 µM in the test on SF-295 CNS; 21.7 µM with SN12C renal; 29 µM in the test on RPMI-8226 leukemia; 23.7 µM in the test on UACC-62 melanoma; 18.4 µM in the test on HCT-116 colon; 24.8 µM in the test with ACHN renal. Moreover, the TGI worked out at 25.9 µM in the test with M14 melanoma; 20.3 µM in the test with SK-MEL-2 melanoma; 24.3 µM in the test with SF-539 CNS; 20.9 µM in the test on SNB-19 CNS; 28.1 µM with BT-549 breast.
Take `O=[N+]([O-])c1cc2ccc(N(CCO)CCO)nc2nc1N(CCO)CCO`: the TGI with SF-295 CNS, in the test on SN12C renal, in the test with RPMI-8226 leukemia, in the test with UACC-62 melanoma, in the test on HCT-116 colon and with ACHN renal was more than 100 µM each time. Further, the TGI with M14 melanoma, in the test on SK-MEL-2 melanoma, with SF-539 CNS, in the test with SNB-19 CNS and in the test with BT-549 breast was more than 100 µM in each case.
Regarding `Cc1ccc(S(=O)(=O)N/N=C2\CC3CC4CCC2C4C3)cc1` (stereo unspecified), the TGI in the test on SF-295 CNS, in the test on SN12C renal, with RPMI-8226 leukemia, in the test with UACC-62 melanoma, with HCT-116 colon and in the test on ACHN renal was more than 100 µM each time. Also, the TGI with M14 melanoma, in the test on SF-539 CNS and with BT-549 breast was more than 100 µM in each case.
As to `CCCCCCCCP(=O)(O)OP(=O)(O)OCC1OC(n2ccc(N)nc2=O)C(O)C1O` (stereo unspecified), the TGI in the test on SF-295 CNS, with SN12C renal, in the test on RPMI-8226 leukemia, with UACC-62 melanoma, in the test on HCT-116 colon and in the test with ACHN renal was more than 100 µM in each case. The TGI in the test on M14 melanoma, in the test with SK-MEL-2 melanoma, in the test with SF-539 CNS, in the test on SNB-19 CNS and in the test on BT-549 breast was more than 100 µM throughout.
Consider `Cc1nc2c(cc1OCc1ccccc1)C(=O)C1=C(C2=O)C2OC(=O)CC2OC1(C)C` (stereo unspecified), for which the TGI in the test with SN12C renal is 0.443 µM; in the test on RPMI-8226 leukemia it was more than 100 µM; with UACC-62 melanoma, 0.322 µM; in the test with HCT-116 colon, 1.04 µM; with ACHN renal it was 1.86 µM; in the test with M14 melanoma, 1.77 µM. Further, the TGI with SF-539 CNS amounted to 2.04 µM; with SNB-19 CNS, 5.65 µM; in the test with BT-549 breast, 1.88 µM.
In the case of `O=C1CC(=O)NC(=NN2C(=O)CSC2C(=O)c2ccco2)N1` (stereo unspecified), the TGI in the test with SF-295 CNS, in the test with SN12C renal, in the test on RPMI-8226 leukemia, in the test on UACC-62 melanoma, with HCT-116 colon and in the test with ACHN renal was more than 100 µM each time. Further, the TGI in the test with M14 melanoma, with SK-MEL-2 melanoma, in the test on SF-539 CNS and with BT-549 breast was more than 100 µM throughout.
With `O=C(O)c1c2c(cc3c1CC1(Cc4cc5c(cc4C1=O)CCC5)C3)CCC2` (stereo unspecified), the TGI in the test with SF-295 CNS, in the test on SN12C renal, in the test with RPMI-8226 leukemia, in the test on UACC-62 melanoma, in the test on HCT-116 colon and with ACHN renal was more than 100 µM each time. In addition, the TGI with M14 melanoma, in the test with SK-MEL-2 melanoma, in the test with SF-539 CNS, in the test with SNB-19 CNS and with BT-549 breast was more than 100 µM in each case.
